Measured values as given in PMC11513854, “De novo GTP synthesis is a metabolic vulnerability for the interception of brain metastases” (Cell Reports Medicine, 2024).

Assays:
[1] = system: de novo GTP synthesis pathway; test: LC-MS metabolomics profiling; type: cell-based, human; settings: IC80, 6 h; for GDP and GTP levels: BT478, BT530; for AICAR levels: b56: accumulates in only some conditions
Method: Metabolites were extracted with a solution of cold acetonitrile/methanol/water (2:2:1) from the cell pellets and protein precipitation was performed by three cycles of freeze/thawing and sonication. The LC-MS metabolomics analysis was performed as previously described.[75] Briefly, a UHPLC-MS system consisting of an Agilent 6550 qToF coupled to an Agilent 1290 binary pump UHPLC system was used. The source parameters were as follows: Gas temperature, 150 °C at 14 L/min and 45 psig; Sheath gas temperature, 325 °C at 12 L/min; Capillary and nozzle voltages were set to −2.0 kV iFunnel conditions were changed from default to-30 V DC, High pressure funnel drop −100 V and RF voltage of 110 V, low pressure funnel drop −50 V and RF voltage of 60 V. Chromatographic separation was achieved by ion-paired chromatography. In brief, […] of each sample was injected onto Agilent ZORBAX Extend-C18 (150 mm 3 2.1 mm i.d.; 1.8 mm) column using tributylamine (TBA) as an ion paring agent (solvent A: 3% methanol, 97% water 10 mM TBA, 15 mM Acetic acid, solvent B: 100% methanol). The linear gradient employed was as follows: 0–2.5 min 99% A, 2.5–7.5 min decrease to 80% A, 7.5–13 min to 55% B and finally 13–15 min to 99% B and held for 1 min. The column was re-generated for 2 min at 1% B. The flow rate was set to […]. The column temperature was maintained at 25°C. Skyline was used for data processing of metabolites in our library of standards using known retention times and MS/MS spectra. Integrated peak areas for the metabolites was exported for further statistical and metabolite enrichment analysis by using online MetaboAnalyst (https://www.metaboanalyst.ca/).

IMPDH KO BT478 cells = test: Dose-response assays using AAVS1 and IMPDH KO cells; type: cell-based, human; settings: IMPDH1 and IMPDH2 knocked out
Source text: In parallel, we knocked out the safe-harbor locus, AAVS1, as a control cell line. Knockouts were validated by western blot (Figures 5E and S4D). Loss of IMPDH led to tumor cell death within 1 week of knockout (Figure 5F).
Guide RNAs (gRNAs) targeting AAVS1 (5′-[…]-3′) and IMPDH1 (5′- […]-3′) and IMPDH2 (5′-a[…]-3′) were obtained from TKOv3[76] and cloned into a single-gRNA lentiCRISPRv2 construct (Addgene 52961). Sequences were verified using Sanger sequencing. Each plasmid was packaged independently into lentivirus using second-generation packaging constructs as described previously.[77] BMICs were infected with lentivirus containing single-gRNA lentiCRISPRv2 constructs targeting AAVS1 or IMPDH1 or IMPDH2 (three gRNAs). Twenty-four hours post-infection, virus-containing media was replaced with fresh media containing puromycin (1–2 μg/mL) (ThermoFisher, Cat#A1113803) for 48–72 h. The knockout efficiency was validated by Western Blotting for evaluation of IMPDH protein expression.

MDR1-MDCKII cells = test: Bi-directional permeability via MDR1-MDCKII cells; type: in vitro ADME
Method: (§1) MDR1-MDCKII permeability assays were performed by Wuxi AppTec Co. Briefly, MDR1-MDCK1 cells were seeded onto polycarbonate membranes in 96-well insert system plates and allowed to develop into monolayers. […] The plate was incubated for 2.5 h (37°C, 5% CO2) and the media was sampled on either side and the compound present was quantified by LC-MS/MS and the concentrations were used to calculate the efflux ratio. Digoxin (10 μM), nadolol (2 μM), and metoprolol (2 μM) were used as controls.

MDR1 = test: Bi-directional permeability via MDR1-MDCKII cells; type: in vitro ADME; settings: dog, MDCK-MDR1, pH 7.4; 2 μM (digoxin 10 μM), 2.5 h
Method: as §1

[2] = Brain homogenate binding, equilibrium dialysis; type: in vitro ADME, mouse; settings: 2 μM, 4 h, 37°C
Method: The samples were applied to a dialysis well plate and sealed with dialysis membrane. Dialysis buffer (100 mM sodium phosphate pH 7.4, 150 mM NaCl) was applied to opposite side of the membrane (receiver well of the plate), and samples were incubated at 37°C with 5% CO2 for 4 h. Following completion of incubation period, samples were recovered from each side of the dialysis membrane and processed by protein precipitation, and analysis by LC-MS/MS for compound concentration. A corresponding set of samples was also prepared and stop solution (acetonitrile containing 200 ng/mL tolbutamide and 200 ng/mL labetalol) was immediately added, and samples were obtained from each side of the dialysis plate for mass spectrometric analysis.

lung-BMICs = test: Intracranial injection of lung-BMICs, daily oral gavage treatment; type: in vivo, mice; settings: 100 mg/kg daily oral gavage from 24 h after injection; log rank n.s. [MPA], p = 0.0005 [Compound 3]
Method: The cells were injected intracranially to ensure that any survival benefit would be due to the compounds crossing the BBB and targeting BMICs in the brain.
All experimental procedures involving animal work has been reviewed and approved by McMaster University Animal Research Ethics Board. Non-obese diabetic-severe combined immunodeficient IL2r γ ^null (NSG) mice are used for all experiments. Equal numbers of male and female mice were used for all experiments. Healthy mice were 6–8 weeks at time of use. Mice are anesthetized by gas anesthesia using isoflurane (4% induction, 2.5% maintenance) before procedure. Cells were engineered to express firefly luciferase and were injected intracardially, orthotopically, or intracranially as previously described.[13]^,[14]^,[63]^,[64]^,[65] […] Mice are monitored weekly for signs of illness until endpoint.

lung-BMIC line (BT478) = test: Dose-response assay, PrestoBlue; type: cell-based, human; settings: for IC50: Homo sapiens, BT478, 72-h treatment, PrestoBlue, N/A, not applicable, read-out: Lung-BM IC50
Method: For preliminary drug screening, drugs were plated at a concentration of 10 μM in a 96-well plate, in triplicate at a density of 1000 cells/well, and incubated at 37°C with a humidified atmosphere of 5% CO2 for three days. Vehicle controls for cell death are used in each functional experiment. Following treatment, PrestoBlue (20 μL, Invitrogen), a resazurin-based cell viability reagent and fluorescence indicator of cell metabolism, was added to each well to estimate proliferation approximately 2 h prior to measuring fluorescence intensity via FLUOstar Omega Fluorescence 556 Microplate reader (BMG LABTECH) at an excitation and emission wavelength of 540 nm and 590 nm, respectively. Results were analyzed using Omega analysis software.
Dose-response assays were conducted using the same protocol apart from drugs being plated using 2-fold serial dilutions (20 μM - 39 nM) as previously described.[66] The half maximal inhibitory concentration (IC50) is determined by plotting percent cell viability by the logarithmic concentration of drug. IC80 concentrations will be used for subsequent functional assays (cell proliferation, sphere formation), as determined by the following formula: ICF=100−F/F^1/H×IC50 where F = fraction of maximal response and H = hill slope.

SMILES	GDP and GTP levels [1]	levels of dihydroorotic acid [1]	AICAR levels [1]	anti-BMIC activity following IMPDH knockout (IMPDH KO BT478 cells)	substrate for P-glycoprotein (ABCB1) (MDR1-MDCKII cells; MDCK-MDR1 cell monolayer model)	Papp A→B at 2.5 h, 2 μM (MDR1)	Papp B→A at 2.5 h, 2 μM (MDR1)	% Unbound [2]	survival advantage (lung-BMICs)	IC50 (lung-BMIC line (BT478))	Rank of Papp (MDR1-MDCKII cells)	permeability for entering the brain (MDR1-MDCKII cells; MDCK-MDR1 cell monolayer model)	efflux ratio at 2.5 h, 2 μM (MDR1)	% Bound [2]	mass of compound following completion of the brain homogenate assay [2]	selectivity for BMICs compared to normal brain cells (lung-BMIC line (BT478); BT478, MDA-MB-231 Br, BT673 vs neural stem cells, 72 h)
COc1c(C)c2c(c(O)c1C/C=C(\C)CCC(=O)O)C(=O)OC2 [MPA, Mycophenolic acid]	significantly reduced	did not influence	accumulate	lose their anti-BMIC activity	not significant substrates	26 ×10⁻⁶ cm/s	10 ×10⁻⁶ cm/s	34.1%	no survival advantage	3.61 µM	–	–	–	–	–	–
COc1c(C)c2c(c(O)c1C/C=C(\C)CCC(=O)OCCN1CCCC1)C(=O)OC2 [Compound 3]	significantly reduced	did not influence	accumulate	lose their anti-BMIC activity	not significant substrates	14.8 ×10⁻⁶ cm/s	12.5 ×10⁻⁶ cm/s	Not Recover ed	significant survival advantage	15.3 µM	High	high permeability	0.848	Not Recover ed	could not be detected	retained MPA’s therapeutic window
